How the values were obtained:
[1] = test system: individuals with dysthymia; experiment: Treatment of dysthymia, clinical observation; assay type: in vivo, human; details: person, PTSD, treated ADHD, sodium valproate 100 mg a day
Excerpt: The inventor has noted in the clinical setting that individuals suffering with symptoms consistent with a diagnosis of dysthymia, experience a significant abatement from their negative and sometimes intrusive thought patterns on commencement of a low dose anti-epileptic drug. The inventor has also noted in the clinic that the beneficial effects that are noted on commencement of this combination can be further enhanced synergistically, by the use of a psycho-stimulant. These individuals may or may not meet the full criteria for a DSM IV diagnosis consistent with ADHD.
A number of individuals with symptoms of dysthymia report that the depression has been present since adolescence, and finally present in the clinic, after an acute major depressive episode. They are able to achieve a partial resolution from the symptoms of depression with appropriate pharmacological and psychological treatment. Unfortunately, their negative thought patterns are more persistent and can be misinterpreted as a failure to adequately respond to antidepressant therapy. In actuality these symptoms predate the acute episode, and it is not surprising therefore that they don't abate following treatment. […] These subsequent outcomes lead to an improvement in general interpersonal functioning, which in itself contributes to psychosocial stability. […]

[2] = test system: patients with substance addiction; experiment: Treatment of addictions, clinical observation; assay type: in vivo, human; details: for clinical outcome (case): person
Excerpt: Addiction to amphetamines poses a number of unique challenges.

CCCC(CCC)C(=O)O.[Na] [sodium valproate, sodium di-n-propylacetic acid]
clinical outcome (case) [1]: could read without distraction | clinical outcome (case) ([2]; methamphetamine use, 100 mg/d Valproate with 50 mg/d dexamphetamine): robust improvement in attention and concentration abilities | clinical outcome (case) ([2]; sodium valproate 50 mg increased to 200 mg with dexamphetamine): reduced dependence on marijuana and ceased alcohol consumption | clinical outcome ([2]; two patients, ADHD and methamphetamine addiction, Valproate 50 to 100 mg/d with 50 mg/d dexamphetamine): responded well
